According to patent publication US7462600B2, “Macrolides” (Pfizer Inc, priority 2004, dated 2008):
Values after ≈ are worked out from the molar mass of the structure shown. Like-named read-outs stand apart in the source and are kept apart here.

Legend:
Format in all cases: cell-based
[1] = test system: Streptococcus pneumoniae 1016; assay: MIC, microtiter broth dilution (NCCLS M100-S14), S. pneumoniae 1016 (susceptible)
Method in brief: (§1)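 Panel strains, including macrolide-resistant isolates and their susceptible parents where available, are exposed to serial compound dilutions in microtiter trays. Growth inhibition is scored as MIC under NCCLS M100-S14 standards.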

[2] = test system: Streptococcus pneumoniae 1175; details: microtiter broth dilution
Method in brief: as §1

[3] = test system: Streptococcus pneumoniae 1095; details: microtiter broth dilution
Method in brief: as §1

[4] = test system: Haemophilus influenzae 1218; assay: MIC, microtiter broth dilution (NCCLS M100-S14), H. influenzae 1218 (susceptible)
Method in brief: as §1

[5] = test system: Streptococcus pyogenes 1079; assay: MIC, microtiter broth dilution (NCCLS M100-S14), S. pyogenes 1079 (ermB)
Method in brief: as §1

[6] = S. pneumoniae 1016 (susceptible)
[7] = H. influenzae 1218 (susceptible)

Row | Compound | MIC S. pneumo. 1016 ([1]; Streptococcus pneumoniae 1016) [µg/mL] | MIC S. pneumo. 1175 ([2]; Streptococcus pneumoniae 1175) [µg/mL] | MIC S. pneumo. 1095 ([3]; Streptococcus pneumoniae 1095) [µg/mL] | MIC H. influenzae 1218 ([4]; Haemophilus influenzae 1218) [µg/mL] | MIC S. pyogenes 1079 ([5]; Streptococcus pyogenes 1079) [µg/mL] | MIC S. pneumo. 1016 [1, 6] [µg/mL] | MIC S. pneumo. 1175 ([2]; S. pneumoniae 1175 (mefA)) [µg/mL] | MIC S. pneumo. 1095 ([3]; S. pneumoniae 1095 (ermB)) [µg/mL] | MIC H. influenzae 1218 [4, 7] [µg/mL] | MIC S. pyogenes 1079 ([5]; S. pyogenes 1079 (ermB)) [µg/mL]
1 | CCC1OC(=O)C(C)C(=O)C(C)C(OC2OC(C)CC(N(C)C)C2O)C(C)(OC)CC(C)C(=O)C(C)C2N(C3CN(Cc4ccc5c(c4)CS(=O)(=O)C5)C3)C(=O)OC12C (stereo not drawn) [Example 1.94] | <0.063 | 0.25 (≈ 0.295 µM) | 0.5 (≈ 0.59 µM) | 1 (≈ 1.18 µM) | 4 (≈ 4.72 µM) |  |  |  |  | 
2 | CCC1OC(=O)C(C)C(=O)C(C)C(OC2OC(C)CC(N(C)C)C2O)C(C)(OC)CC(C)C(=O)C(C)C2N(CC3CCCN3C(=O)c3cccc4cccnc34)C(=O)OC12C (stereo not drawn) [12.10] |  |  |  |  |  | <0.06 | 2 (≈ 2.35 µM) | 0.5 (≈ 0.588 µM) | 8 (≈ 9.4 µM) | >64.00
3 | CCC1OC(=O)C(C)C(=O)C(C)C(OC2OC(C)CC(N(C)C)C2O)C(C)(OC)CC(C)C(=O)C(C)C2N(C3CN(S(=O)(=O)c4ccc5c(c4)CS(=O)(=O)C5)C3)C(=O)OC12C (stereo not drawn) [Example 3.95] | <0.06 | <0.06 | <0.06 | 0.5 (≈ 0.557 µM) | 0.12 (≈ 0.134 µM) |  |  |  |  | 
4 | CCC1OC(=O)C(C)C(=O)C(C)C(OC2OC(C)CC(N(C)C)C2O)C(C)(OC)CC(C)C(=O)C(C)C2N(C3CN(S(=O)(=O)c4ccc(NC(C)=O)cc4)C3)C(=O)OC12C (stereo not drawn) [Example 3.108, 3-descladinosyl-11,12-dideoxy-6-O-methyl-3-oxo-12,11-(oxycarbonyl-(1-(4-acetamidobenzene-1-sulfonyl)-azetidin-3-yl)-imino)-erythromycin A] | <0.063 | 0.5 (≈ 0.578 µM) | <0.063 | 1 (≈ 1.16 µM) | 0.25 (≈ 0.289 µM) |  |  |  |  | 
5 | CCC1OC(=O)C(C)C(=O)C(C)C(OC2OC(C)CC(N(C)C)C2O)C(C)(OC)CC(C)C(=O)C(C)C2N(C3CN(C(=O)Nc4ccc5ncccc5c4)C3)C(=O)OC12C (stereo not drawn) [Example 2.05, N-(quinolin-6-yl) aminocarbonyl] | <0.06 | <0.06 | 16 (≈ 19.1 µM) | 0.5 (≈ 0.597 µM) | 64 (≈ 76.4 µM) |  |  |  |  | 
6 | CCC1OC(=O)C(C)C(=O)C(C)C(OC2OC(C)CC(N(C)C)C2O)C(C)(OC)CC(C)C(=O)C(C)C2N(C3CN(S(=O)(=O)c4cccc(F)c4)C3)C(=O)OC12C (stereo not drawn) [Example 3.08, 3-fluorobenzenesulfonyl] | <0.06 | <0.06 | <0.06 | 0.5 (≈ 0.605 µM) | 16 (≈ 19.4 µM) |  |  |  |  | 
7 | CCC1OC(=O)C(C)C(=O)C(C)C(OC2OC(C)CC(N(C)C)C2O)C(C)(OC)CC(C)C(=O)C(C)C2N(CC3CN(Cc4c[nH]c5ncccc45)C3)C(=O)OC12C (stereo not drawn) [Example 4.18, 3-descladinosyl-11,12-dideoxy-6-O-methyl-3-oxo-12,11-(oxycarbonyl-(1-((1H-pyrrolo[2,3-b]pyridin-3-yl)-methyl)-(azetidin-3-yl)-methyl)-imino)-erythromycin A] | <0.06 | 0.5 (≈ 0.616 µM) | 0.12 (≈ 0.148 µM) | 0.25 (≈ 0.308 µM) | 8 (≈ 9.85 µM) |  |  |  |  | 
8 | CCC1OC(=O)C(C)C(=O)C(C)C(OC2OC(C)CC(N(C)C)C2O)C(C)(OC)CC(C)C(=O)C(C)C2N(C3CN(S(=O)(=O)c4ccc5c(c4)CCC5)C3)C(=O)OC12C (stereo not drawn) [Example 3.83] | <0.06 | <0.06 | <0.06 | 1 (≈ 1.18 µM) | 32 (≈ 37.7 µM) |  |  |  |  | 
9 | CCC1OC(=O)C(C)C(=O)C(C)C(OC2OC(C)CC(N(C)C)C2O)C(C)(OC)CC(C)C(=O)C(C)C2N(CC3(O)CN(S(=O)(=O)c4cccc5cccnc45)C3)C(=O)OC12C (stereo not drawn) [7.06] |  |  |  |  |  | <0.06 | 0.5 (≈ 0.562 µM) | 32 (≈ 36 µM) | 0.5 (≈ 0.562 µM) | >64.00
10 | CC[C@H]1OC(=O)[C@H](C)C(=O)[C@H](C)[C@@H](O[C@@H]2O[C@H](C)C[C@H](N(C)C)[C@H]2O)[C@](C)(OC)C[C@@H](C)C(=O)[C@H](C)[C@H]2N(CC3(O)CN(Cc4c[nH]c5ncccc45)C3)C(=O)O[C@]12C [7.04] |  |  |  |  |  | <0.06 | 1 (≈ 1.21 µM) | <0.06 | 0.5 (≈ 0.604 µM) | 32 (≈ 38.6 µM)
11 | CCC1OC(=O)C(C)(F)C(=O)C(C)C(OC2OC(C)CC(N(C)C)C2O)C(C)(OC)CC(C)C(=O)C(C)C2N(CC3CCCN3C(=O)c3nccc4ccccc34)C(=O)OC12C (stereo not drawn) [10.29] |  |  |  |  |  | <0.06 | 0.12 (≈ 0.138 µM) | <0.06 | 2 (≈ 2.3 µM) | 16 (≈ 18.4 µM)
12 | CCC1OC(=O)C(C)C(=O)C(C)C(OC2OC(C)CC(N(C)C)C2O)C(C)(OC)CC(C)C(=O)C(C)C2N(CC3CCN(Cc4ccnc5ccccc45)C3)C(=O)OC12C [Example 11.11, 3-descladinosyl-11,12-dideoxy-6-O-methyl-3-oxo-12,11-(oxycarbonyl-(1-((quinolin-4-yl)-methyl)-((S)-pyrrolidin-3-yl)-methyl)-imino)-erythromycin A] |  |  |  |  |  | <0.06 | 0.12 (≈ 0.143 µM) | 0.12 (≈ 0.143 µM) | 1 (≈ 1.19 µM) | 8 (≈ 9.56 µM)
13 | CCC1OC(=O)C(C)C(=O)C(C)C(OC2OC(C)CC(N(C)C)C2O)C(C)(OC)CC(C)C(=O)C(C)C2N(C3CN(C(=O)c4ccnc(-c5noc(C)n5)c4)C3)C(=O)OC12C (stereo not drawn) [Example 2.18] | <0.06 | 0.5 (≈ 0.585 µM) | >64.00 | 32 (≈ 37.4 µM) | >64.00 |  |  |  |  | 
14 | CCC1OC(=O)C(C)C(=O)C(C)C(OC2OC(C)CC(N(C)C)C2O)C(C)(OC)CC(C)C(=O)C(C)C2N(CC3CCN(Cc4c[nH]nn4)C3)C(=O)OC12C (stereo not drawn) [13.07] |  |  |  |  |  | <0.06 | 4 (≈ 5.15 µM) | >64.00 | 2 (≈ 2.57 µM) | >64.00
15 | CCC1OC(=O)C(C)C(=O)C(C)C(OC2OC(C)CC(N(C)C)C2O)C(C)(OC)CC(C)C(=O)C(C)C2N(C3CN(S(=O)(=O)c4cccc5nccnc45)C3)C(=O)OC12C (stereo not drawn) [Example 3.93, 3-descladinosyl-11,12-dideoxy-4-O-methyl-3-oxo-12,11-(oxycarbonyl-(1-(quinoxaline-5-sulfonyl)-azetidin-3-yl)-imino)-erythromycin A] | <0.06 | <0.06 | <0.06 | 0.25 (≈ 0.291 µM) | 1 (≈ 1.16 µM) |  |  |  |  | 
16 | CC[C@H]1OC(=O)[C@H](C)C(=O)[C@H](C)[C@@H](O[C@@H]2O[C@H](C)C[C@H](N(C)C)[C@H]2O)[C@](C)(OC)C[C@@H](C)C(=O)[C@H](C)[C@H]2N(CC3(O)CN(C(=O)c4ccc(-n5cccn5)nc4)C3)C(=O)O[C@]12C.O=CO [7.31] |  |  |  |  |  | <0.06 | 0.12 | 4 | 8 | >64.00
17 | CCC1OC(=O)C(C)C(=O)C(C)C(OC2OC(C)CC(N(C)C)C2O)C(C)(OC)CC(C)C(=O)C(C)C2N(CC3CCCN3C(=O)c3cccc4ccncc34)C(=O)OC12C (stereo not drawn) [10.37] |  |  |  |  |  | <0.06 | <0.06 | <0.06 | 0.5 (≈ 0.588 µM) | 16 (≈ 18.8 µM)
18 | CCC1OC(=O)C(C)C(=O)C(C)C(OC2OC(C)CC(N(C)C)C2O)C(C)(OC)CC(C)C(=O)C(C)C2N(C3CN(S(=O)(=O)c4cccc(Oc5ccc(F)cc5)c4)C3)C(=O)OC12C (stereo not drawn) [Example 3.110, 3-descladinosyl-11,12-dideoxy-6-O-methyl-3-oxo-12,11-(oxycarbonyl-(1-(3-(4-fluorophenoxy)benzene-1-sulfonyl)-azetidin-3-yl)-imino)erythromycin A] | <0.063 | <0.063 | <0.063 | 2 (≈ 2.18 µM) | 4 (≈ 4.36 µM) |  |  |  |  | 
